Test results from patent US12187681B2 (Shanghai East Hospital, priority 2019, dated 2025).
Structures can show the parent of a compound that is named as a salt.

How the values were obtained:
[1] = biological target: T1, CaV1.2 (L-type voltage-dependent calcium channel; CACNA1C, CACNB2, CACNA2D1) (Homo sapiens, UniProt Q13936); experiment: CaV1.2 channel whole-cell patch clamp (Ion Channel Activity Measurement); assay type: cell-based; conditions: human, room temperature; for inhibition at 5 min, 1 μM: pH 7.4, 1 μM test article; for inhibition at 5 min, 10 μM: pH 7.4, 10 μM test article, read-out: CaV 1.2 10 μM (ion-channel inhibition)
T1 construct: expressed in transfected cells; host or cells: CHO
T1 sequence (Q13936 1-2138 isoform Q13936-12): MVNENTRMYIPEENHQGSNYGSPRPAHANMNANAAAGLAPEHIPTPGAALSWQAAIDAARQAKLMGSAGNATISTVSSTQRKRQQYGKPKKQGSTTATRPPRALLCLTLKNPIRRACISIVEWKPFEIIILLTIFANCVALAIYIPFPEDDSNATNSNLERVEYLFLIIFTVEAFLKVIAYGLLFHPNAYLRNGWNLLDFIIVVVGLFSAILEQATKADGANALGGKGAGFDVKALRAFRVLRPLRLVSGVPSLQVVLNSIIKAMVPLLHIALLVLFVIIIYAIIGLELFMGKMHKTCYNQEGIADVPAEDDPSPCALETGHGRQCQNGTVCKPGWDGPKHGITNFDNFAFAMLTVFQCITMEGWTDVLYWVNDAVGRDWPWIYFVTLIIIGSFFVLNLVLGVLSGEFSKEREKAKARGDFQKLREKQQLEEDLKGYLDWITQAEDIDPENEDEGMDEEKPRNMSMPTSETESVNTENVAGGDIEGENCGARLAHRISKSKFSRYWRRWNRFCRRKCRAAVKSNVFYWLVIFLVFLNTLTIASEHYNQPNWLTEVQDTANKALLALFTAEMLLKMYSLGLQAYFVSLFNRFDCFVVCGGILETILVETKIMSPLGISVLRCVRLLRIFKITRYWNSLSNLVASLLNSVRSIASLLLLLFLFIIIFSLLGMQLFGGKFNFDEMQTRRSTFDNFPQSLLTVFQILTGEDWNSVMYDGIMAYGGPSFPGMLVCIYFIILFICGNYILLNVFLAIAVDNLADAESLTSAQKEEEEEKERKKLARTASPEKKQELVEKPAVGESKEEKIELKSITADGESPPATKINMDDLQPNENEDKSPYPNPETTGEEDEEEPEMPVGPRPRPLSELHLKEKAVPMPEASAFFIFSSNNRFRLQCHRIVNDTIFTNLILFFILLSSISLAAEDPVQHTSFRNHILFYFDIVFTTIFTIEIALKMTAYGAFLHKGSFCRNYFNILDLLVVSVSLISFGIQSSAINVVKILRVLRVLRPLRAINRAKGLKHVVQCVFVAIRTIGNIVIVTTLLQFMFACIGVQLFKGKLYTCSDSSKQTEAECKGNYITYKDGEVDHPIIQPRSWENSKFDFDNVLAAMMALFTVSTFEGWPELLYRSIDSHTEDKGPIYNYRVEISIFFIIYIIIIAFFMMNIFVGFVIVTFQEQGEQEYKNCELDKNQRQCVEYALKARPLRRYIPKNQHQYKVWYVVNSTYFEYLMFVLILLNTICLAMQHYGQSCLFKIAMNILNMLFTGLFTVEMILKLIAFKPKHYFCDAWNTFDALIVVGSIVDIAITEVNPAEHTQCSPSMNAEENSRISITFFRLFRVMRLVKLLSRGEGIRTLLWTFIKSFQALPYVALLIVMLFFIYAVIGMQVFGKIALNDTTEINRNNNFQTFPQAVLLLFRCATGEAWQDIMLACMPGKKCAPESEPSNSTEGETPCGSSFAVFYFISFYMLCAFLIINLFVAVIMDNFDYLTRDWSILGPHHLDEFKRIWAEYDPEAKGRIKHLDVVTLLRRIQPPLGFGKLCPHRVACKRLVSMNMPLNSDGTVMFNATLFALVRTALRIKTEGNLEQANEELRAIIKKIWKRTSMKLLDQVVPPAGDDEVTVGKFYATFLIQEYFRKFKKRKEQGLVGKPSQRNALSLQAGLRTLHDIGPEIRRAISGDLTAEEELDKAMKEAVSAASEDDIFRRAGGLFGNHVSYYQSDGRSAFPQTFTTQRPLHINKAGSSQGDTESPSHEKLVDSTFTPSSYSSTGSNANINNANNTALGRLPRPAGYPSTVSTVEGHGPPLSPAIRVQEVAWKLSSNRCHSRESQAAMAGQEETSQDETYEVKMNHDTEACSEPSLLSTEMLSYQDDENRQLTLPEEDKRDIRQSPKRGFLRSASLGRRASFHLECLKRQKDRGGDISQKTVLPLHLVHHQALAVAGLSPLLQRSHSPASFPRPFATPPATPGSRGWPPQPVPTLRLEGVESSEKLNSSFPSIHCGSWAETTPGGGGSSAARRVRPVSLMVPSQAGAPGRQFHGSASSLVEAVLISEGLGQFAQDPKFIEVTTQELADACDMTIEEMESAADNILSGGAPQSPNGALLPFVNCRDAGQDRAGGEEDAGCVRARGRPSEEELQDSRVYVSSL
T1 sequence (Q08289 1-605 isoform Q08289-2 partner): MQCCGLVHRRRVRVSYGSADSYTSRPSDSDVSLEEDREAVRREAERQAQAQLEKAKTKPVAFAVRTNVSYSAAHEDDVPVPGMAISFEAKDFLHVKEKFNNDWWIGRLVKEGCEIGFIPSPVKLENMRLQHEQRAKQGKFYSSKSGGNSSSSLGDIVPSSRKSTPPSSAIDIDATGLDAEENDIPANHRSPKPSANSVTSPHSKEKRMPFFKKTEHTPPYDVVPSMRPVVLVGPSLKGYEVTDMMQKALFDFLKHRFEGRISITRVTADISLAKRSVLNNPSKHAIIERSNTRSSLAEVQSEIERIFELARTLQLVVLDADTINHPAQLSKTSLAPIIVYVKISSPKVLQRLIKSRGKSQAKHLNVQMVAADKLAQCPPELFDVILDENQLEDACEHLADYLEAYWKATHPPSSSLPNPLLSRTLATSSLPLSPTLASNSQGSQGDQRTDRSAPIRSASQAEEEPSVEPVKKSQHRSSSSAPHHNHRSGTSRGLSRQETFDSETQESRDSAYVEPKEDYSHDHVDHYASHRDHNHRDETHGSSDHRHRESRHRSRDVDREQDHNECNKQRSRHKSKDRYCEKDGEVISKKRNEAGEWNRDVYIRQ
T1 sequence (P54289 25-1091 isoform P54289-2 partner limits assumed): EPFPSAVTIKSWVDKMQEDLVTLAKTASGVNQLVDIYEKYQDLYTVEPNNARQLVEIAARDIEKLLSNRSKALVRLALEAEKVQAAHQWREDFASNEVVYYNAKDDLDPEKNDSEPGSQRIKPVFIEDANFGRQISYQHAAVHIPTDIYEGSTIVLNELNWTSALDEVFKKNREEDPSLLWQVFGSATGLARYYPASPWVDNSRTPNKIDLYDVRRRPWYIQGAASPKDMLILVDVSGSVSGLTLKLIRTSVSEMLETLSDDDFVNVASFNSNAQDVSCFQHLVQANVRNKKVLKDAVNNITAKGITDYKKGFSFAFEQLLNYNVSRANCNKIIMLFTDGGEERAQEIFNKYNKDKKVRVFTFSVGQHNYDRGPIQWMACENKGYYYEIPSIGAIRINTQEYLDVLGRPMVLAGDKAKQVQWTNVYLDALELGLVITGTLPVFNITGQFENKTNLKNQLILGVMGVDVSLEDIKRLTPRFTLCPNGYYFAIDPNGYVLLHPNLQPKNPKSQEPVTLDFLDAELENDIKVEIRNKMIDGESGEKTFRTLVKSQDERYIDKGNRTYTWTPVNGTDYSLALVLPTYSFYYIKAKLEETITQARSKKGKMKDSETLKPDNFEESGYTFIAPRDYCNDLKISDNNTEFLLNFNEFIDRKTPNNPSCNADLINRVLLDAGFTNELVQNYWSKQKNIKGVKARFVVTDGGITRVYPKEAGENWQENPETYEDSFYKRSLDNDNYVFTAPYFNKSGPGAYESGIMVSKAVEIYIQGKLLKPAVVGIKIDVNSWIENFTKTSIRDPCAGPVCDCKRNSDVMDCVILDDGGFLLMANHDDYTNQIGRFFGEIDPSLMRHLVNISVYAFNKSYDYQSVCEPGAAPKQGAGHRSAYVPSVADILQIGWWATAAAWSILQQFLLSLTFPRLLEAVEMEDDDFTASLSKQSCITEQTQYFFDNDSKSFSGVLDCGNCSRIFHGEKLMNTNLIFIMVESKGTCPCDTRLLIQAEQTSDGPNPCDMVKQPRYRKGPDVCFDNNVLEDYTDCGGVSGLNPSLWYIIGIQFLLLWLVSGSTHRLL
T1 sequence (P54289 957-1103 partner limits assumed): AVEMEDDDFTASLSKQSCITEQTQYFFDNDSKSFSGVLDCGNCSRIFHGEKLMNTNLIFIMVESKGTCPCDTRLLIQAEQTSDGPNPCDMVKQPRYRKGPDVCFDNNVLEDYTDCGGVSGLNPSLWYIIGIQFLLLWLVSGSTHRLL
Experimental: • CHO cell line stably expressing human calcium channel, voltage-dependent, L type, • CACNA1C: cDNA strictly similar to GenBank accession number: NM_000719 • CACNB2: cDNA strictly similar to GenBank accession number: NM_000724 • CACNA2D1: cDNA strictly similar to GenBank accession number: NM_000722 Iks Channel Cell Line:
(§1) Cells expressing channels were cultured in medium supplemented with 20% FBS in HAM'S F12 culture dish. Cells grew in a humidified incubator at 37° C. under 5% carbon dioxide. To passage cells, remove poor medium and rinse the cells once with PBS 1X. […] Place plate on a 37° C. warming incubator 5 min. As soon as cells are detached, add 5 ml of 37° C. complete medium. Draw cell suspension into a sterile pipet and homogenize cells gently to dissociate cells aggregates. Amplify or maintain the cells by seeding 2.5*105 cells in a 6 cm dish (final volume: 5 ml). To maintain electrophysiological performances, cell density must not exceed 80%. On the day before patch clamp experiment, 3*103 cells were seeded on coverslips in the 24-well plate and incubated at 37° C. in 5% carbon dioxide.
Bath solution: 140 mM TEA-C1, 2 mM MgCl2·6H2O, 10 mM CaCl2, 10 mM HEPES, 5 mM D-glucose, pH=7.4 with TEA-OH. Pipette solution: 120 mM CsCl, 1 mM MgCl2·6H2O, 10 mM HEPES, 10 mM EGTA, 0.3 mM Na2-GTP, 4 mM Mg-ATP, pH=7.2 with CsOH.
(§2) Glass pipette (BF150-86-10, Sutter Instruments) was made by puller (P97, Sutter Instruments). The glass pipette was manipulated using Micro-manipulator (Carm-C-S, MCI Instruments) under the microscope (AE31EF-INV, Motic). After touching the cell, a slight suction was applied to achieve high seal (GΩ). Fast capacitance (in pF) compensation was made after high seal was achieved; after achieving high seal, the membrane was broken, Cell capacitance (in pF) compensation was made from whole-cell capacitance compensation after the whole cell mode was achieved. No leak subtraction was made.
(§3) Cell was incubated with the test article for 5 minutes, or until the current reached a steady-state level. Multiple concentrations of test article were tested. The test articles were applied gradually from low to high concentration. The test and control solutions were flown into a recording chamber mounted on the stage of an inverted microscope via a gravity-fed solution delivery system. During the experiment, solutions were withdrawn from the recording chamber by vacuum aspiration. Each concentration was tested at multiple times. Each cell acted as its own control. All tests were performed at room temperature (23-25° C.).
Cav1.2 current was recorded under a holding potential at −80 mV and then depolarized to +10 mV for 0.3 seconds. This protocol was repeated at 20 s intervals to observe the effect of test articles on the peak of Cav1.2 current.

[2] = biological target: T2, hERG (human ether-a-go-go related gene potassium channel, KCNH2) (Homo sapiens, UniProt Q12809); experiment: hERG channel whole-cell patch clamp (Ion Channel Activity Measurement); assay type: cell-based; conditions: human, HEK293 cells expressing the human ERG potassium channel, room temperature; for inhibition at 1 μM: pH 7.4, 1 μM test article; for inhibition at 10 μM: pH 7.4, 10 μM test article
T2 construct: expressed in transfected cells; host or cells: HEK293
T2 sequence (Q12809 whole entry): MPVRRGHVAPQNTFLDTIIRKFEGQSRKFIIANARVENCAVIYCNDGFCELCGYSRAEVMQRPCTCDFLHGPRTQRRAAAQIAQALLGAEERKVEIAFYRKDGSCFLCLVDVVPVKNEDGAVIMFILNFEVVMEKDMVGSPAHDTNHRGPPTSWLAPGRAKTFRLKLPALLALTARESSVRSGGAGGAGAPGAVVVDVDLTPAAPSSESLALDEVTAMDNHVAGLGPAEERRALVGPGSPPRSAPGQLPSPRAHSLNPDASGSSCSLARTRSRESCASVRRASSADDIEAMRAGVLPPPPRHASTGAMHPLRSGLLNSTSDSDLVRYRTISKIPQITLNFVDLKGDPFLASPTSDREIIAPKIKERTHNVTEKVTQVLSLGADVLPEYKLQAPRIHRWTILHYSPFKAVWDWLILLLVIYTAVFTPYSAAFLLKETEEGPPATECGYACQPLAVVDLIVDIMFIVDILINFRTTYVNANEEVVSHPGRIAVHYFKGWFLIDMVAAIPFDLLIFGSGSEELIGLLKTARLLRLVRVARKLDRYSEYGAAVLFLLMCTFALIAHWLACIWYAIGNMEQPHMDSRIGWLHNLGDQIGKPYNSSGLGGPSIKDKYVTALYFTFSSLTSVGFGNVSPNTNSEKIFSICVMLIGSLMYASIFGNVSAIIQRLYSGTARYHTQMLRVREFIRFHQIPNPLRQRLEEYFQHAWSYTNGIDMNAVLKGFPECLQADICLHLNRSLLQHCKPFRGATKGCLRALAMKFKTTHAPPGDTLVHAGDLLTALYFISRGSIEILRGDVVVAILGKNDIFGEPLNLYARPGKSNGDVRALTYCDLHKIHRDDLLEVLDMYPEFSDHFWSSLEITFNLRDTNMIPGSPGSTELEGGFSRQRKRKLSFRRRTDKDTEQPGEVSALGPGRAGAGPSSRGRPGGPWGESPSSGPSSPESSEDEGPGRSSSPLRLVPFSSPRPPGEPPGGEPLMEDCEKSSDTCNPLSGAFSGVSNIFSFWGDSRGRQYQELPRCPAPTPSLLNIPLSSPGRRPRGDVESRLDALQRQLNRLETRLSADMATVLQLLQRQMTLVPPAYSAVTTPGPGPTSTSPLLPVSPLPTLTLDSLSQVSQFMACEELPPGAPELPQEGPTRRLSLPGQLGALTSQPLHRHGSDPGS
Experimental: HEK293 cell line expressing the human ERG (ether-a-go-go related gene) potassium channel (Potassium voltage-gated channel subfamily H member 2). cDNA strictly similar to GenBank accession number: NM_000238
as §1, §2, §3
hERG current was recorded under a holding potential at −80 mV and then depolarized to 30 mV for 2.5 seconds to activate the hERG channel. The peak tail currents were induced by a repolarizing pulse to −50 mV for 4 seconds. This voltage-clamp pulse protocol was performed continuously during the experiment. An interpulse interval of 10 seconds allowed recovery from inactivation. An interpulse of −50 mV test for 0.5 second before 30 mV depolarized step was included for leak current correction

Row | Structure (SMILES) | inhibition at 5 min, 1 μM [1] | inhibition at 5 min, 10 μM [1] | inhibition at 1 μM [2] | inhibition at 10 μM [2]
1 | Oc1cccc2c1C(c1c(O)ccc3c1CCCC3)CCC2 (stereo not shown) [Compound A077-2, 1′,2′,3′,4′,5,6,7,8-octahydro-[1,1′-binaphthalene]-2,8′-diol] | < 25% | < 25% | < 25% | 50 to 75%
2 | Oc1cccc2c1C(c1c(O)ccc3ccccc13)=CC2 [Compound A078, 1-(4-hydroxy-1H-inden-3-yl)naphthalen-2-ol] | < 25% | < 25% | < 25% | < 25%
3 | Oc1cccc2c1C(c1c(O)ccc3ccccc13)CC2 (stereo not shown) [Compound A079, 1-(7-hydroxy-2,3-dihydro-1H-inden-1-yl)naphthalen-2-ol] | < 25% | 50 to 75% | < 25% | 75 to 100%
4 | COc1ccc(COCc2ccc3ccccc3c2C(O)c2c(COCc3ccc(OC)cc3)ccc3ccccc23)cc1 [Compound A080, bis(2-(((4-methoxybenzyl)oxy)methyl)naphthalen-1-yl)methanol] | < 25% | 25 to 50% | < 25% | < 25%
5 | CC(C)c1cc2ccccc2c(Cc2c(O)c(C(C)C)cc3ccccc23)c1O [Compound A081, 1,1′-methylenebis(3-isopropylnaphthalen-2-ol)] | < 25% | 25 to 50% | < 25% | 50 to 75%
6 | CCN(CC)CCOc1ccc2ccccc2c1Cc1c(O)c(C)cc2ccccc12 [Compound A098, 1-((2-(2-(diethylamino)ethoxy)naphthalen-1-yl)methyl)-3-methylnaphthalen-2-ol] | < 25% | < 25% | 25 to 50% | 75 to 100%
7 | O=C(O)c1ccc2ccccc2c1Cc1c(C(=O)O)ccc2ccccc12 [Compound A100, 1,1′-methylenebis(2-naphthoic acid)] | < 25% | < 25% | < 25% | < 25%
8 | NC(=O)c1ccc2ccccc2c1Cc1c(C(N)=O)ccc2ccccc12 [Compound A101, 1,1′-methylenebis(2-naphthamide)] | < 25% | < 25% | < 25% | 50 to 75%
9 | CCN(CC)CCOc1c(C(C)C)cc2ccccc2c1Cc1c(O)c(C(C)C)cc2ccccc12 [Compound A102, 1-((2-(2-(diethylamino)ethoxy)-3-isopropylnaphthalen-1-yl)methyl)-3-isopropylnaphthalen-2-ol hydrochloride Salt] | < 25% | 75 to 100% | 50 to 75% | 75 to 100%
10 | O=C(O)c1ccc2ccccc2c1Cc1c(O)ccc2ccccc12 [Compound A106, 1-((2-hydroxynaphthalen-1-yl)methyl)-2-naphthoic acid] | < 25% | < 25% | < 25% | < 25%
11 | CCN(CC)CCOc1c(C)cc2ccccc2c1Cc1c(O)c(C)cc2ccccc12 [Compound A108, 1-((2-(2-(diethylamino)ethoxy)-3-methylnaphthalen-1-yl)methyl)-3-methylnaphthalen-2-ol] | < 25% | 25 to 50% | < 25% | < 25%
12 | Oc1ccc2ccccc2c1Cc1c(O)ccc2ccncc12 [Compound A109, 8-((2-hydroxynaphthalen-1-yl)methyl)isoquinolin-7-ol] | 25 to 50% | 50 to 75% | < 25% | 75 to 100%
13 | CCN(CC)CCOc1ccc2ccccc2c1N(C)c1c(OC)ccc2ccccc12 [Compound A111-I-2, 2-(2-(diethylamino)ethoxy)-N-(2-methoxynaphthalen-1-yl)-N-methylnaphthalen-1-amine 2,2,2-trifluoroacetate] | < 25% | 25 to 50% | 50 to 75% | 75 to 100%
